Measurements taken from the supplement of paper PMC10307832.

Assays:
Assay in all cases: relative viability (nuclei count vs DMSO), 5 days (fraction); higher = more cells survive
[1] = compound: C1CSC2=C(C(=O)N1)SC3=C2C=C(C=C3)O [kb NB 142-70] + CC(C)C[C@H](NC(=O)[C@H](Cc1ccccc1)NC(=O)c1cnccn1)B(O)O [Bortezomib] (partner 0.002 µM)
In short: (§1)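 A single step with final 0.05% Triton X-100, 1% formaldehyde and 1 ug/ml Hoechst fixed the cells and stained nuclei 5 days after treatment. Lung cancer cell lines in 1536-well plates had been treated by pin tool the day after seeding with one drug alone or a fixed anchor-drug dose plus five library-drug doses (not always all listed) in √10 steps, and nuclei were counted on 4× images. Relative viability is the ratio of nuclei in treated wells to nuclei in vehicle wells, taken as the median of duplicate plates.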

kb NB 142-70 + Lapatinib = compound: C1CSC2=C(C(=O)N1)SC3=C2C=C(C=C3)O [kb NB 142-70] + CS(=O)(=O)CCNCc1ccc(-c2ccc3ncnc(Nc4ccc(OCc5cccc(F)c5)c(Cl)c4)c3c2)o1 [Lapatinib] (partner 2 µM)
In short: as §1

[2] = compound: C1CSC2=C(C(=O)N1)SC3=C2C=C(C=C3)O [kb NB 142-70] + Cc1cc(Nc2cc(N3CCN(C)CC3)nc(Sc3ccc(NC(=O)C4CC4)cc3)n2)n[nH]1 [Tozasertib] (partner 0.1 µM)
In short: as §1

kb NB 142-70 + AZD7762 = compound: C1CSC2=C(C(=O)N1)SC3=C2C=C(C=C3)O [kb NB 142-70] + NC(=O)Nc1cc(-c2cccc(F)c2)sc1C(=O)N[C@H]1CCCNC1 [AZD7762] (partner 0.2 µM)
In short: as §1

kb NB 142-70 + Olaparib = compound: C1CSC2=C(C(=O)N1)SC3=C2C=C(C=C3)O [kb NB 142-70] + O=C(c1cc(Cc2n[nH]c(=O)c3ccccc23)ccc1F)N1CCN(C(=O)C2CC2)CC1 [Olaparib] (partner 8 µM)
In short: as §1

[3] = compound: NCC(=O)Nc1ccc(-n2nc(C(F)(F)F)cc2-c2ccc3c(ccc4ccccc43)c2)cc1 + C[C@@H](Oc1cc(-c2cnn(C3CCNCC3)c2)cnc1N)c1c(Cl)ccc(F)c1Cl [Crizotinib] (partner 1 µM)
In short: as §1

| Cell Line | relative viability ([1]; first compound 0.1 µM) | relative viability ([1]; first compound 1 µM) | relative viability ([1]; first compound 3.162 µM) | relative viability (kb NB 142-70 + Lapatinib; first compound 0.1 µM) | relative viability (kb NB 142-70 + Lapatinib; first compound 1 µM) | relative viability (kb NB 142-70 + Lapatinib; first compound 3.162 µM) | relative viability ([2]; first compound 0.1 µM) | relative viability ([2]; first compound 1 µM) | relative viability ([2]; first compound 3.162 µM) | relative viability (kb NB 142-70 + AZD7762; first compound 0.1 µM) | relative viability (kb NB 142-70 + AZD7762; first compound 1 µM) | relative viability (kb NB 142-70 + AZD7762; first compound 3.162 µM) | relative viability (kb NB 142-70 + Olaparib; first compound 0.1 µM) | relative viability (kb NB 142-70 + Olaparib; first compound 1 µM) | relative viability (kb NB 142-70 + Olaparib; first compound 3.162 µM) | relative viability ([3]; first compound 0.02 µM) | relative viability ([3]; first compound 0.06325 µM) | relative viability ([3]; first compound 0.2 µM) | relative viability ([3]; first compound 0.6325 µM) | relative viability ([3]; first compound 2 µM) |
| --- | --- | --- | --- | --- | --- | --- | --- | --- | --- | --- | --- | --- | --- | --- | --- | --- | --- | --- | --- | --- |
| NCI-H322M | 1.2 | 1.25 | 1.3 | 0.568 | 0.646 | 0.617 | 0.464 | 0.519 | 0.45 | 0.634 | 0.707 | 0.846 | 0.777 | 0.795 | 0.621 | 1.06 | 0.835 | 0.962 | 0.909 | 0.922 |
| NCI-H838 | 0.83 | 0.777 | 0.877 | 0.934 | 0.913 | 1.03 | 0.29 | 0.249 | 0.271 | 0.938 | 0.925 | 1 | 0.73 | 0.787 | 0.739 | 0.856 | 0.903 | 0.879 | 0.813 | 0.761 |
| HARA | 1.15 | 1.06 | 0.964 | 0.943 | 0.634 | 0.661 | 0.0886 | 0.112 | 0.0824 | 0.292 | 0.393 | 1.07 | 0.873 | 0.602 | 0.547 | 1.06 | 1.01 | 1.04 | 1.05 | 1.13 |
| NCI-H2087 | 0.821 | 0.88 | 0.755 | 0.935 | 1.22 | 0.897 | 0.267 | 0.201 | 0.141 | 1.38 | 1.45 | 1.18 | 0.506 | 0.589 | 0.411 | 0.779 | 0.866 | 0.889 | 0.906 | 0.885 |
| NCI-H1437 | 0.485 | 0.492 | 0.482 | 0.728 | 0.78 | 0.85 | 0.407 | 0.421 | 0.446 | 1.14 | 1.12 | 1 | 0.625 | 0.663 | 0.57 | 0.946 | 0.85 | 0.964 | 0.94 | 0.894 |
| NCI-H650 | 0.845 | 0.719 | 0.561 | 1.05 | 1.17 | 0.657 | 0.747 | 0.668 | 0.435 | 0.999 | 1.09 | 0.774 | 0.417 | 0.374 | 0.267 | 0.728 | 0.809 | 0.72 | 0.653 | 0.802 |
| 201T | 1.09 | 1.17 | 1.11 | 1.05 | 1.06 | 1.06 | 0.875 | 0.974 | 1.03 | 0.603 | 0.723 | 0.676 | 0.828 | 0.87 | 0.85 | 1.02 | 1.02 | 1.01 | 1.03 | 0.984 |
| HCC-44 | 0.952 | 0.94 | 0.899 | 1.02 | 1.03 | 0.996 | 0.728 | 0.901 | 0.722 | 0.99 | 1.06 | 1.06 | 0.945 | 0.981 | 0.974 | 0.9 | 0.828 | 0.853 | 0.819 | 0.74 |
| NCI-H596 | 1 | 1.07 | 0.954 | 1.02 | 0.931 | 0.884 | 0.804 | 0.881 | 0.749 | 1.13 | 1.09 | 1.09 | 0.658 | 0.579 | 0.788 | 1 | 1.12 | 1.01 | 1.05 | 0.943 |
| H3255 | 0.822 | 0.7 | 0.822 | 0.271 | 0.195 | 0.234 | 0.534 | 0.785 | 0.746 | 0.86 | 0.925 | 0.999 | 0.559 | 0.577 | 0.604 | 0.936 | 0.846 | 0.884 | 0.806 | 0.894 |
| NCI-H647 | 0.987 | 0.773 | 1.06 | 1.11 | 1.08 | 0.836 | 0.274 | 0.332 | 0.426 | 0.412 | 0.516 | 0.537 | 0.549 | 0.495 | 0.539 | 1.17 | 1.14 | 1.13 | 0.976 | 0.747 |
| NCI-H23 | 1.1 | 0.896 | 0.516 | 1.23 | 0.872 | 0.413 | 0.381 | 0.37 | 0.241 | 0.376 | 0.291 | 0.275 | 0.314 | 0.318 | 0.241 | 0.512 | 0.501 | 0.542 | 0.509 | 0.565 |
| NCI-H460 | 1.05 | 1.08 | 0.608 | 1.02 | 1.03 | 0.48 | 0.541 | 0.397 | 0.254 | 0.618 | 0.904 | 0.953 | 0.396 | 0.509 | 0.526 | 0.922 | 0.952 | 0.931 | 0.811 | 0.688 |
| EKVX | 0.994 | 1.05 | 0.993 | 0.263 | 0.216 | 0.235 | 0.353 | 0.382 | 0.466 | 0.739 | 0.704 | 0.684 | 0.853 | 0.88 | 0.984 | 1.2 | 0.973 | 0.896 | 1.06 | 0.868 |
| EPLC-272H | 0.926 | 1.06 | 0.72 | 0.937 | 0.817 | 0.649 | 0.353 | 0.217 | 0.143 | 0.265 | 0.34 | 0.284 | 0.761 | 0.481 | 0.121 | 1.03 | 0.965 | 0.881 | 0.878 | 0.962 |
